Experimental data as given in PubChem BioAssay (NCI).
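Method: 48-hour compound exposure of cells in 96-well plates, five concentrations, linear interpolation of endpoints. GI50: concentration for 50% inhibition of growth. TGI: total growth inhibition.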

What was measured:
Test in all cases: growth of human tumour cells (NCI), 48 h; in the data active = GI50 below about 0.43 µM; inactive = the rest
786-0 renal = system: 786-0 renal
A498 renal = system: A498 renal
A549 NSCLC = system: A549 NSCLC
ACHN renal = system: ACHN renal
BT-549 breast = system: BT-549 breast
CAKI-1 renal = system: CAKI-1 renal
CCRF-CEM leukemia = system: CCRF-CEM leukemia
COLO 205 colon = system: COLO 205 colon
DU-145 prostate = system: DU-145 prostate
EKVX NSCLC = system: EKVX NSCLC
HCC-2998 colon = system: HCC-2998 colon
HCT-116 colon = system: HCT-116 colon
HCT-15 colon = system: HCT-15 colon
HL-60(TB) leukemia = system: HL-60(TB) leukemia
HOP-62 NSCLC = system: HOP-62 NSCLC
HOP-92 NSCLC = system: HOP-92 NSCLC
HS 578T breast = system: HS 578T breast
HT29 colon = system: HT29 colon
IGROV1 ovarian = system: IGROV1 ovarian
K-562 leukemia = system: K-562 leukemia
KM12 colon = system: KM12 colon
LOX IMVI melanoma = system: LOX IMVI melanoma
M14 melanoma = system: M14 melanoma
MALME-3M melanoma = system: MALME-3M melanoma
MCF7 breast = system: MCF7 breast
MDA-MB-231 breast = system: MDA-MB-231 breast
MDA-MB-435 = system: MDA-MB-435
MOLT-4 leukemia = system: MOLT-4 leukemia
NCI-H226 lung = system: NCI-H226 lung
NCI-H460 lung = system: NCI-H460 lung
NCI-H522 lung = system: NCI-H522 lung
NCI/ADR-RES ovarian = system: NCI/ADR-RES ovarian
OVCAR-4 ovarian = system: OVCAR-4 ovarian
OVCAR-5 ovarian = system: OVCAR-5 ovarian
OVCAR-8 ovarian = system: OVCAR-8 ovarian
PC-3 prostate = system: PC-3 prostate
RPMI-8226 leukemia = system: RPMI-8226 leukemia
RXF 393 renal = system: RXF 393 renal
SF-268 CNS = system: SF-268 CNS
SF-295 CNS = system: SF-295 CNS
SF-539 CNS = system: SF-539 CNS
SK-MEL-2 melanoma = system: SK-MEL-2 melanoma
SK-MEL-28 melanoma = system: SK-MEL-28 melanoma
SK-MEL-5 melanoma = system: SK-MEL-5 melanoma
SK-OV-3 ovarian = system: SK-OV-3 ovarian
SN12C renal = system: SN12C renal
SNB-19 CNS = system: SNB-19 CNS
SNB-75 CNS = system: SNB-75 CNS
SR leukemia = system: SR leukemia
SW-620 colon = system: SW-620 colon
T-47D breast = system: T-47D breast
TK-10 renal = system: TK-10 renal
U251 CNS = system: U251 CNS
UACC-257 melanoma = system: UACC-257 melanoma
UACC-62 melanoma = system: UACC-62 melanoma
UO-31 renal = system: UO-31 renal

Cc1ccc(C2=Nn3c(nnc3-c3ccccc3)SC2)cc1
5270 nM: TGI (SNB-75 CNS)
active: GI50 (BT-549 breast) 385 nM | GI50 (HCT-15 colon) 416 nM | GI50 (HL-60(TB) leukemia) 333 nM | GI50 (HT29 colon) 412 nM | GI50 (K-562 leukemia) 321 nM | GI50 (MDA-MB-435) 196 nM | GI50 (NCI-H460 lung) 389 nM | GI50 (NCI/ADR-RES ovarian) 262 nM | GI50 (SNB-75 CNS) 392 nM | GI50 (SR leukemia) 251 nM | GI50 (SW-620 colon) 378 nM
96900 nM: TGI (SK-MEL-2 melanoma)
25600 nM: TGI (HS 578T breast)
2540 nM: TGI (NCI-H522 lung)
50000 nM: TGI (NCI-H460 lung)
3530 nM: TGI (HT29 colon)
459 nM: TGI (MDA-MB-435)
19700 nM: TGI (RXF 393 renal)
inactive: GI50 (786-0 renal) 6020 nM | GI50 (A498 renal) 445 nM | GI50 (A549 NSCLC) 702 nM | GI50 (ACHN renal) 3270 nM | GI50 (CAKI-1 renal) 750 nM | GI50 (CCRF-CEM leukemia) 1660 nM | GI50 (COLO 205 colon) 492 nM | GI50 (DU-145 prostate) 2850 nM | GI50 (EKVX NSCLC) 6840 nM | GI50 (HCC-2998 colon) 1040 nM | GI50 (HCT-116 colon) 428 nM | GI50 (HOP-62 NSCLC) 1230 nM | GI50 (HOP-92 NSCLC) 2580 nM | GI50 (HS 578T breast) 1200 nM | GI50 (IGROV1 ovarian) 801 nM | GI50 (KM12 colon) 17300 nM | GI50 (LOX IMVI melanoma) 838 nM | GI50 (M14 melanoma) 435 nM | GI50 (MALME-3M melanoma) > 100000 nM | GI50 (MCF7 breast) 1600 nM | GI50 (MDA-MB-231 breast) 497 nM | GI50 (MOLT-4 leukemia) 461 nM | GI50 (NCI-H226 lung) 3450 nM | GI50 (NCI-H522 lung) 440 nM | GI50 (OVCAR-4 ovarian) 6280 nM | GI50 (OVCAR-5 ovarian) 2570 nM | GI50 (OVCAR-8 ovarian) 1780 nM | GI50 (PC-3 prostate) 815 nM | GI50 (RPMI-8226 leukemia) 895 nM | GI50 (RXF 393 renal) 1870 nM | GI50 (SF-268 CNS) 6370 nM | GI50 (SF-295 CNS) 845 nM | GI50 (SF-539 CNS) 925 nM | GI50 (SK-MEL-2 melanoma) 921 nM | GI50 (SK-MEL-28 melanoma) 27400 nM | GI50 (SK-MEL-5 melanoma) 595 nM | GI50 (SK-OV-3 ovarian) 1760 nM | GI50 (SN12C renal) 799 nM | GI50 (SNB-19 CNS) 3500 nM | GI50 (T-47D breast) 869 nM | GI50 (TK-10 renal) 54100 nM | GI50 (U251 CNS) 528 nM | GI50 (UACC-257 melanoma) > 100000 nM | GI50 (UACC-62 melanoma) 536 nM | GI50 (UO-31 renal) 2150 nM
4760 nM: TGI (SF-539 CNS)
881 nM: TGI (NCI/ADR-RES ovarian)
84600 nM: TGI (OVCAR-8 ovarian)
5230 nM: TGI (A498 renal)
24500 nM: TGI (COLO 205 colon)
> 100000 nM: TGI (786-0 renal) | TGI (A549 NSCLC) | TGI (ACHN renal) | TGI (BT-549 breast) | TGI (CAKI-1 renal) | TGI (CCRF-CEM leukemia) | TGI (DU-145 prostate) | TGI (EKVX NSCLC) | TGI (HCC-2998 colon) | TGI (HCT-116 colon) | TGI (HCT-15 colon) | TGI (HL-60(TB) leukemia) | TGI (HOP-62 NSCLC) | TGI (HOP-92 NSCLC) | TGI (IGROV1 ovarian) | TGI (K-562 leukemia) | TGI (KM12 colon) | TGI (LOX IMVI melanoma) | TGI (M14 melanoma) | TGI (MALME-3M melanoma) | TGI (MCF7 breast) | TGI (MDA-MB-231 breast) | TGI (MOLT-4 leukemia) | TGI (NCI-H226 lung) | TGI (OVCAR-4 ovarian) | TGI (OVCAR-5 ovarian) | TGI (PC-3 prostate) | TGI (RPMI-8226 leukemia) | TGI (SF-268 CNS) | TGI (SF-295 CNS) | TGI (SK-MEL-28 melanoma) | TGI (SK-MEL-5 melanoma) | TGI (SK-OV-3 ovarian) | TGI (SN12C renal) | TGI (SNB-19 CNS) | TGI (SR leukemia) | TGI (SW-620 colon) | TGI (T-47D breast) | TGI (TK-10 renal) | TGI (U251 CNS) | TGI (UACC-257 melanoma) | TGI (UACC-62 melanoma) | TGI (UO-31 renal)
